From US5707615A, “Method of treating HIV infections with anti-viral formulations” (Merrell Pharmaceuticals Inc., priority 1997, dated 1998)

How the values were obtained:
HIV-I, GB8 = experiment: Ability to prevent syncytia formation and expression of P24 viral core antigen using JM cells and GB8 virus strain (Example I); type: cell-based; conditions: for P24 % CONTROL: 4320 min
Experimental: The virus was first incubated with an oligomer for 15 minutes and then the cells were added. After 2 hours adsorption, the virus innoculum was removed and the cells were washed three times to remove traces of input virus. Antiviral activity was determined after 3 days incubation by plotting the mean number of syncytia found in quadruple cultures against log10 concentration of anionic polymer or of other test compounds. The potency of an oligomer was also measured by assaying viral core antigen (P24 test-Abbott) in the supernatant fluid. Heparin, dextran sulfate, rs CD4, ATZ and/or ddC data, when included in any of the following Tables, are provided as positive controls.

MT4 cells = experiment: Toxicity to MT4 cells (TD50, Table IV, MTT); type: cell-based; conditions: human, mt4 cells, 168 h
Experimental: (§1) Various oligomers were dissolved in RPMI and were then assayed for anti-HIV activity by making doubling dilutions of the solutions across a 96 well microtitre plate. To each well were then added 5×10^4 cells and 100 TCID50 of virus and the plates incubated at 37° C. for 7 days. MTT was added to each well and the plates incubated for a further 2 hours. The blue formazan crystals were dissolved using acidic isopropanol, and the absorbance measured at 540 nm.

HIV strain RF = experiment: Ability to prevent virus-induced cell death using MT4 cells and strain RF (Example III); type: cell-based; conditions: MT4 cells, 7 days, MTT
Experimental: as §1

[1] = system: viral protein which is responsible for cell recognition; conditions: cited from earlier work
[2] = in vivo; cited from earlier work
HIV-I (GB8) = experiment: Pretreatment of JM cells and block of HIV-I (GB8) infection (Example IV); conditions: pretreated overnight at 20 μg/mL
Experimental: JM cells were pretreated overnight at 37° C. with different compounds at 20 μg/mL or left untreated. The cells were washed 3 times in RPMI medium and then infected with HIV-I (GB8) for 2 hours at room temperature. The cells were again washed 3 times in RPMI medium and resuspended in fresh medium prior to being distributed into duplicate wells and incubated at 37° C. After 2 days syncytia were scored and the cell free supernatant fluid harvested and assayed for P24 viral core antigen using the Coulter™ HIV antigen assay.

GB8 virus in JM cells = experiment: Virus infection of JM cells with GB8 in the presence of test compounds: syncytia and P24 (Example II); conditions: for SYNCYTIA % / P24 %: % of control; for SYNCYTIA %: 2880 min; for P24 %: 5760 min
Experimental: Virus infection of JM cells was carried out in the presence of different concentrations of test compounds. JM cells (1×10^5) and 50-100 syncytial forming units of virus (GB8) were added to duplicate wells of a tissue culture plate containing 1 mL volumes of growth medium with or without drug. The plate was incubated for 2 days at 37° C. and then scored for the presence of syncytia. At the same time the cells were washed and the growth medium replaced. After a further two days incubation, the cell free supernatant fluids were harvested and assayed for levels of P24 viral core antigen using the Coulter™ HIV Antigen assay.

## Heparin [reference compound]
HIV-I, GB8; 0.6 μg/mL
  P24: 44570 pg/mL
  P24 % CONTROL: 0.1%
HIV-I, GB8; 2.5 μg/mL
  P24: 25775 pg/mL
  P24 % CONTROL: < 0.1%
HIV-I, GB8; 5.0 μg/mL
  P24: 2500 pg/mL
  P24 % CONTROL: < 0.1%
HIV-I, GB8; 5.0 μg/mL, after 3 days
  SYNCYTIA: 0
MT4 cells
  TD50: > 100 µg/mL
HIV strain RF
  ED50: 4.6 µg/mL
[1]
  inhibition of host cell infection: limited inhibition of host cell infection
[2]
  side effects: hemorrhage and increased clot formation time as well as thrombocytopenia
HIV-I (GB8)
  P24: 29090 pg/mL
HIV-I (GB8); 2 days
  MEAN SYNCYTIA: 136
HIV-I (GB8); % of control, 2880 min
  P24 %: 103%
  SYNCYTIA %: 114%
GB8 virus in JM cells; Table II, 0.01 μg/mL
  SYNCYTIA (2 DAYS) MEAN: 38
  SYNCYTIA %: 90%
GB8 virus in JM cells; Table II, 0.03 μg/mL
  SYNCYTIA (2 DAYS) MEAN: 29
  SYNCYTIA %: 69%
GB8 virus in JM cells; Table II, 0.1 μg/mL
  SYNCYTIA (2 DAYS) MEAN: 24
  SYNCYTIA %: 57%
GB8 virus in JM cells; Table II, 0.3 μg/mL
  P24: 4.1 × 10^4 units/mL
  SYNCYTIA (2 DAYS) MEAN: 22
  SYNCYTIA %: 52%
  P24 %: 11%
GB8 virus in JM cells; Table II, 1 μg/mL
  SYNCYTIA (2 DAYS) MEAN: 2
  SYNCYTIA %: 5%
  P24 %: 8%
GB8 virus in JM cells; Table II, 3 μg/mL
  P24: 1.7 × 10^4 units/mL
  SYNCYTIA (2 DAYS) MEAN: 0
  SYNCYTIA %: 0%
  P24 %: 5%
GB8 virus in JM cells; Table II, 10 μg/mL
  SYNCYTIA (2 DAYS) MEAN: 0
  SYNCYTIA %: 0%
  P24 %: 3%
GB8 virus in JM cells; Table III, 1 μg/mL
  P24: 211000 pg/mL
  SYNCYTIA MEAN: 13
  SYNCYTIA %: 19%
  P24 %: 63%
GB8 virus in JM cells; Table III, 10 μg/mL
  P24: 70700 pg/mL
  SYNCYTIA MEAN: 0
  P24 %: 21%
GB8 virus in JM cells; Table III, 100 μg/mL
  P24: 989 pg/mL
  SYNCYTIA MEAN: 0
  P24 %: 0.3%
